# Legend:
# Type in all cases: cell-based, human
# D283 cells [1] = experiment: Colony formation assay on soft agar; conditions: transfected D283 cells, after 3 weeks, p<0.001
# Method: Wnt inhibitors were cloned into pcDNA3.1, D283 cells transfected and plated on agar. Colonies selected in G418. Total number of colonies formed on agar was counted for three separate experiments (FIG. 8).
# Colony formation assays were performed on soft agar. Cells were plated at 1.5×10^5 per well using 6-well plates and transfected with pcDNA3.1D/V5-His-TOPO/DKK1, pcDNA3.1D/N5-His-TOPO/lacZ or pcDNA3.1D/V5-His-TOPO with no insert (mock control) using Trans It-Neural transfection reagents (Mirus). The cells were selected in G418 (1 mg/ml) supplemented media at 24 hr post transfection. The cells were simultaneously harvested to confirm their expression at the mRNA level by real-time PCR. G418 resistant cells were maintained for two weeks in culture. Cells were re-suspended in media containing 0.3% agarose and were overlaid on 0.6% agarose. 0.5 ml media was added to the plates every four days and colony formation was quantified after fixation and staining with methylene blue after 3 weeks.
# [2] = tested on: D283 medulloblastoma cells; experiment: Cell viability of D283 cells treated with TSA (MTT assay, washout experiments)
# Method: The inventors tested cell viability of D283 medulloblastoma cells treated with increasing doses of the HDAC inhibitor TSA (FIG. 1A). They also tested cell viability was measured by an MTT assay.
# The inventors also determined the minimum time of TSA exposure needed to induce cell death (FIG. 1B). D283 cells were exposed to TSA for various time points and the media replaced for an additional 24 h prior to assaying for cell viability.
# To identify genes regulated by changes in histone H3 K9 acetylation status, the inventors first determined the optimal dose and timing for treating D283 medulloblastoma cells with TSA. The D283 cell line was chosen since it is widely used as a cell model of medulloblastoma and is well characterized. […] For microarray studies, the inventors treated D283 cells with 0.2 μM TSA for 9 hours. […] To confirm the microarray analysis, real-time quantitative PCR (qPCR) was performed on nine randomly selected genes (FIG. 12A).
# D283 cells [3] = experiment: FACS analysis of TUNEL-stained D283 cells (apoptosis); conditions: 12 hours, TUNEL FACS (DMSO 13%)
# Method: FIGS. 11A-11C. Effects of TSA on D283 cells. (FIG. 11A) Dose response curves of cell viability for D283 medulloblastoma cells treated with increasing doses of the HDAC inhibitor TSA. (FIG. 11B) FACs analysis of TUNEL-stained (BD Biosciences) D283 cells treated with TSA for 12 hours. FACs dot plots of cells with DMSO (i), and cells treated with 0.02 μM and 0.2 μM TSA (ii and iii).
# D283 cells [4] = experiment: Whole genome expression microarray of TSA treated D283 cells; conditions: 0.2 μM TSA, 9 hours, q<0.001
# Method: (§1) RNA from vehicle and TSA treated D283 cells was reverse-transcribed and hybridized to the ABI 1700 Human Genome Expression Microarray containing 33,202 gene-specific 60-mer oligonucleotide probes. Data was quantile normalized and t-test was applied to each gene for statistical significance. Differential gene expression was quantified using the Storey q-value method and data visualized using Spotfire software.
# (§2) The D283 cell line was cultured with either 0.2 μM TSA or DMSO for 9 hours to generate gene expression profiles in response to TSA. Total RNA was extracted from treated cells using Trizol (Invitrogen, Carlsbad, Calif.). RNA was further purified using the RNeasy kit (QIAGEN, Valencia, Calif.) per manufacturer's protocol and purity of RNA was determined by the Agilent Bioanalyzer. 2 μg of total RNA was reverse-transcribed with the Chemiluminescent RT-IVT Labeling Kit (Applied Biosystems, Foster City, Calif.) and hybridized to a 60-mer whole genome oligonucleotide microarray (Applied Biosystems, Foster City, Calif.) containing 33,202 probes representing 29,098 genes per manufacturer's protocol. A total of three microarray hybridizations, one for each biological replicate, were performed per treatment. […] Differential gene expression was quantified using Storey q-value method (Storey and Tibshirani, 2003, Proc Natl Acad Sci USA 100, 9440-9445). […]
# sFRP 1 = experiment: Expression microarray, TSA fold increase of sFRP1; conditions: D283 medulloblastoma cells
# Excerpt: as §1
# (§3) The inventors performed studies that determined that antagonists of Wnt signalling are epigenetically silenced in medulloblastoma.
# as §2, with “protocol.” for “protocol. A total of three microarray hybridizations, one for each biological replicate, were performed per treatment.”
# WIF 1 = experiment: Expression microarray, TSA fold increase of WIF1; conditions: D283 medulloblastoma cells
# Excerpt: as §1, §3
# as §2, with “protocol.” for “protocol. A total of three microarray hybridizations, one for each biological replicate, were performed per treatment.”
# Dkk 1 = experiment: Expression microarray, TSA fold increase of Dkk1; conditions: D283 medulloblastoma cells
# Excerpt: as §1, §3
# as §2, with “protocol.” for “protocol. A total of three microarray hybridizations, one for each biological replicate, were performed per treatment.”
# histone acetylation = experiment: Western blot analysis of histone acetylation; conditions: D283 cells, 9 hours of TSA exposure
# DKK1 = experiment: qPCR of DKK1 expression after TSA
# Method: The inventors identified genes by means of the microarray analysis. The results were verified by real time PCR (ABI) in D283 cells using Assay on demand gene expression reagents (ABI) for selected genes. Human Gus was used as the normalizer gene. Real-time PCR was performed on ABI PRISM 7900 HT detection system. Validated genes were assayed in normal brain and medulloblastoma patient samples.
# (§4) RNA was isolated from cells and tissues with Triazol (Invitrogen, Carlsbad, Calif.). Real-time PCR was performed on the ABI PRISM 7900 HT detection system using Taq man reagents (Applied Biosystems, Foster City, Calif.) per the manufacturer's recommendations. Gene expression was determined with Assay on Demand gene expression reagents (Applied Biosystems, Foster City, Calif.). All assays were done in triplicate.
# p21 = experiment: qPCR of p21 mRNA after TSA; conditions: TSA 0.2 μM, D283, Daoy and MB 100 primary cells, n=3
# Method: as §4
# RASSF1 = experiment: qPCR of RASSF1 mRNA after TSA; conditions: TSA 0.2 μM, D283, Daoy and MB 100 primary cells, n=3
# Method: as §4
Compound,fewer neo-resistant colonies than controls (D283 cells [1]) [%],"cell viability ([2]; 0.1 μM TSA, 24 h, MTT assay) [%]","cells committed to cell death by 24 hours ([2]; 0.2 μM TSA for 9 hours, washout) [%]","cell viability ([2]; 0.2 μM TSA, 9 hours) [%]","cell viability ([2]; 0.2 μm TSA, 24 h, MTT assay) [%]","surviving cells ([2]; TSA exposure between 6 and 9 h, media replaced for additional 24 h) [%]",apoptotic cells (D283 cells [3]; 0.02 μM TSA) [%],apoptotic cells (D283 cells [3]; 0.2 μM TSA) [%],number of genes induced at least 2-fold (D283 cells [4]),TSA fold increase of sFRP1 (sFRP 1) [fold],TSA fold increase of WIF1 (WIF 1) [fold],TSA fold increase of Dkk1 (Dkk 1) [fold],histone acetylation (histone acetylation),"DKK1 expression (DKK1; D283 cells, TSA 0.2 μm, qPCR)","DKK1 expression (DKK1; MB47, MB100, MB187 primary cells and D283, RT-PCR)",p21 mRNA (p21),RASSF1 mRNA (RASSF1)
DKK1,60,–,–,–,–,–,–,–,–,–,–,–,–,–,–,–,–
"CC(/C=C/C(=O)NO)=C\[C@@H](C)C(=O)c1ccc(N(C)C)cc1 [TSA, Trichostatin A]",–,50,85,100,30,80,31,79,714,2.9,2.5,1.4,robust histone acetylation,potently induces DKK1 expression,increased on TSA treatment,induction,induction

# — patent publication US20070148666A1, “Diagnosis and Treatment of Brain Cancer” (priority 2005, published 2007)
